According to patent US8153653B2, “Amido-tropane derivatives” (Hoffmann-La Roche Inc., priority 2010, dated 2012):

Target: T1, mGlyT-1b (Mus musculus, UniProt P28571)
T1 construct: host or cells: Flp-in-CHO cells, stably transfected
T1 sequence (P28571 1-651 isoform P28571-2): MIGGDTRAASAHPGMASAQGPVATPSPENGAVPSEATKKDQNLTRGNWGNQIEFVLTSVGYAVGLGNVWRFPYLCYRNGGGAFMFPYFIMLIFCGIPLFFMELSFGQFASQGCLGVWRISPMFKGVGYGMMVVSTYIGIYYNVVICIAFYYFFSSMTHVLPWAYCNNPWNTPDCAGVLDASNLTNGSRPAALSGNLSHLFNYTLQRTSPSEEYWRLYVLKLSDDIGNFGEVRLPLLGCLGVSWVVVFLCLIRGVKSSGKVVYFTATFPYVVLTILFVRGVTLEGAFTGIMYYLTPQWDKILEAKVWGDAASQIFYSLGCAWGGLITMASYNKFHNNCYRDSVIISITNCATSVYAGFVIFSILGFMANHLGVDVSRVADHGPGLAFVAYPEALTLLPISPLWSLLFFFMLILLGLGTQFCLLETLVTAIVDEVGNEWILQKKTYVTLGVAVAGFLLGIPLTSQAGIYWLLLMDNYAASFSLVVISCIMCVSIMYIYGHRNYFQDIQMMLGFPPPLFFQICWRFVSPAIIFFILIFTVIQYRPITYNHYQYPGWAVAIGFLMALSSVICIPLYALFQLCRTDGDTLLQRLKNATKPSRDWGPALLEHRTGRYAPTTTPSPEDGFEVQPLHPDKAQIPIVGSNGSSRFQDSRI
Assay: Glycine Uptake Inhibition Assay (mGlyT-1b)
Format: cell-based
Settings: [3H]-glycine uptake in Flp-in-CHO cells stably transfected with mGlyT-1b cDNA; 20 min preincubation at 22° C.
Description: DMEM complete medium: Nutrient mixture F-12 (Gibco Life-technologies), fetal bovine serum (FBS) 5%, (Gibco life technologies), Penicillin/Streptomycin 1% (Gibco life technologies), Hygromycin 0.6 mg/ml (Gibco life technologies), Glutamine 1 mM Gibco life technologies) Uptake buffer (UB): 150 mM NaCl, 10 mM Hepes-Tris, pH 7.4, 1 mM CaCl2, 2.5 mM KCl, 2.5 mM MgSO4, 10 mM (+) D-glucose. Flp-in™-CHO (Invitrogen Cat n° R758-07) cells stably transfected with mGlyT1b cDNA.
Glycine Uptake Inhibition Assay (mGlyT-1b)
On day 1 mammalian cells, (Flp-in™-CHO), transfected with mGlyT-1b cDNA, were plated at the density of 40,000 cells/well in complete F-12 medium, without hygromycin in 96-well culture plates. On day 2, the medium was aspirated and the cells were washed twice with uptake buffer (UB). The cells were then incubated for 20 min at 22° C. with either (i) no potential competitor, (ii) 10 mM non-radioactive glycine, (iii) a concentration of a potential inhibitor. A range of concentrations of the potential inhibitor was used to generate data for calculating the concentration of inhibitor resulting in 50% of the effect (e.g. IC50, the concentration of the competitor inhibiting glycine uptake of 50%). A solution was then immediately added containing [^3H]-glycine 60 nM (11-16 Ci/mmol) and 25 μM non-radioactive glycine. The plates were incubated with gentle shaking and the reaction was stopped by aspiration of the mixture and washing (three times) with ice-cold UB. The cells were lysed with scintillation liquid, shaken 3 hours and the radioactivity in the cells was counted using a scintillation counter.

| SMILES | IC50 |
| --- | --- |
| COc1cc(C(F)(F)F)cc(SC)c1C(=O)N[C@@]1(c2ccccc2)CC[C@@H]2CC[C@H]1N2C (racemic) [Example 1, 2-Methoxy-N-((1RS,2RS,5SR)-8-methyl-2-phenyl-8-aza-bicyclo[3.2.1]oct-2-yl)-6-methylsulfanyl-4-trifluoromethyl-benzamide] | 0.014 µM |
| COc1cc(C(F)(F)F)cc(SC)c1C(=O)N[C@@]1(c2ccccc2)CC[C@@H]2CC[C@H]1N2C (racemic) [Example 3, 2-Methoxy-N-((1R,2R,5S)-8-methyl-2-phenyl-8-aza-bicyclo[3.2.1]oct-2-yl)-6-methylsulfanyl-4-trifluoromethyl-benzamide] | 0.008 µM |
| CN1[C@H]2CC[C@@H]1[C@](NC(=O)c1ccc(C(F)(F)F)cc1C1CC1)(c1ccccc1)CC2 (racemic) [Example 4, 2-Cyclopropyl-N-((1RS,2RS,5SR)-8-methyl-2-phenyl-8-aza-bicyclo[3.2.1]oct-2-yl)-4-trifluoromethyl-benzamide] | 0.008 µM |
| CCc1cc(C(F)(F)F)cc(OC)c1C(=O)N[C@@]1(c2ccccc2)CC[C@@H]2CC[C@H]1N2C (racemic) [Example 13, 2-Ethyl-6-methoxy-N-((1RS,2RS,5SR)-8-methyl-2-phenyl-8-aza-bicyclo[3.2.1]oct-2-yl)-4-trifluoromethyl-benzamide] | 0.014 µM |
| CCc1cc(C(F)(F)F)ccc1C(=O)N[C@]1(c2ccccc2)CC[C@H]2CC[C@@H]1N2C (stereo in doubt) [Example 5, 2-Ethyl-N-((1S,2S,5R) or (1R,2R,5S)-8-methyl-2-phenyl-8-aza-bicyclo[3.2.1]oct-2-yl)-4-trifluoromethyl-benzamide] | 0.019 µM |
| CCc1cc(C(F)(F)F)ccc1C(=O)N[C@@]1(c2ccccc2)CC[C@@H]2CC[C@H]1N2C (stereo in doubt) [Example 6, 2-Ethyl-N-((1R,2R,5S) or (1S,2S,5R)-8-methyl-2-phenyl-8-aza-bicyclo[3.2.1]oct-2-yl)-4-trifluoromethyl-benzamide] | 0.031 µM |
| COc1cc(C(F)(F)F)cc(C)c1C(=O)N[C@@]1(c2ccccc2)CC[C@@H]2CC[C@H]1N2C (stereo in doubt) [Example 7, 2-Methoxy-6-methyl-N-((1RS,2RS,5SR)-8-methyl-2-phenyl-8-aza-bicyclo[3.2.1]oct-2-yl)-4-trifluoromethyl-benzamide] | 0.006 µM |
| COc1cc(C(F)(F)F)cc(C)c1C(=O)N[C@]1(c2ccccc2)CC[C@H]2CC[C@@H]1N2C (stereo in doubt) [Example 8, 2-Methoxy-6-methyl-N-((1S,2S,5R) or (1R,2R,5S)-8-methyl-2-phenyl-8-aza-bicyclo[3.2.1]oct-2-yl)-4-trifluoromethyl-benzamide] | 0.02 µM |
| COc1cc(C(F)(F)F)cc(C)c1C(=O)N[C@@]1(c2ccccc2)CC[C@@H]2CC[C@H]1N2C (stereo in doubt) [Example 9, 2-Methoxy-6-methyl-N-((1R,2R,5S) or (1S,2S,5R)-8-methyl-2-phenyl-8-aza-bicyclo[3.2.1]oct-2-yl)-4-trifluoromethyl-benzamide] | 0.02 µM |
| COc1cc(C(F)(F)F)cc(C2CC2)c1C(=O)N[C@@]1(c2ccccc2)CC[C@@H]2CC[C@H]1N2C (stereo in doubt) [Example 10, 2-Cyclopropyl-6-methoxy-N-((1RS,2RS,5SR)-8-methyl-2-phenyl-8-aza-bicyclo[3.2.1]oct-2-yl)-4-trifluoromethyl-benzamide] | 0.004 µM |
| COc1cc(C(F)(F)F)cc(C2CC2)c1C(=O)N[C@]1(c2ccccc2)CC[C@H]2CC[C@@H]1N2C (stereo in doubt) [Example 11, 2-Cyclopropyl-6-methoxy-N-((1S,2S,5R) or (lR,2R.5S)-8-methyl-2-phenyl-8-aza-bicyclo[3.2.1]oct-2-yl)-4-trifluoromethyl-benzamide] | 0.006 µM |
| COc1cc(C(F)(F)F)cc(C2CC2)c1C(=O)N[C@@]1(c2ccccc2)CC[C@@H]2CC[C@H]1N2C (stereo in doubt) [Example 12, 2-Cyclopropyl-6-methoxy-N-((1R,2R,5S) or (1S,2S,5R)-8-methyl-2-phenyl-8-aza-bicyclo[3.2.1]oct-2-yl)-4-trifluoromethyl-benzamide] | 0.006 µM |
| COc1cc(C(F)(F)F)cc(SC)c1C(=O)N[C@]1(c2ccccc2)CC[C@H]2CC[C@@H]1N2C [Example 2, 2-Methoxy-N-((1S,2S,5R)-8-methyl-2-phenyl-8-aza-bicyclo[3.2.l]oct-2-yl)-6-methylsulfanyl-4-trifluoromethyl-benzamide] | 0.021 µM |
